From US5328913A, “Minoxidil analogs as inhibitors of cell proliferation and lysyl hydroxylase” (priority 1992, dated 1994)
Entries after “also recorded” stand apart in the source; their conditions may differ.

How the values were obtained:
Assay type in all cases: cell-based
lysyl hydroxylase [1] = assay: Lysyl hydroxylase activity in extracts of treated human skin fibroblasts (Example 1, tritium-release assay)
lysyl hydroxylase [2] = assay: as above; settings: for increase of the level of lysyl hydroxylase activity: 72 h (Table I text); for Lysyl hydroxylase activity (%) / effect on lysyl hydroxylase activity (in words): 72 h; for Lysyl hydroxylase activity (%): 1% ethanol; for effect on lysyl hydroxylase activity (in words): cultured fibroblasts, Example 1
Procedure: (§1) Cultures of human skin fibroblasts grown to confluence were incubated for 72 h in medium supplemented with 1% ethanol containing various concentrations of minoxidil or deoxyminoxidil as indicated. Cells were then harvested, and the enzyme activities in extracts of these cells were measured by tritium-release assays (Murad and Pinnell, J. Biol. Chem. 262:11,973 (1987)). The results are expressed as percentages of zero-concentration values.
as §1, with “with 1% acetone containing various concentrations of minoxidil sulfate,” for “deoxyminoxidil”, “tritium release” for “tritium-release”
Skin fibroblast cultures derived from an apparently normal child (GM05659) were obtained from the Institute for Medical Research, Camden, N.J. The cells were subcultured by trypsinization and used before 25 population doublings. Typically, 4×10^5 cells were seeded onto 100-mm (diameter) plastic petri dishes and allowed to grow in 10 ml of Dulbecco's modified Eagle's minimum essential medium containing 5.6 mM glucose, buffered in pH 7.4 with 24 mM sodium biocarbonate/25 mM Hepes and supplemented with 20% (v/v) calf serum which had been inactivated for 30 min at 56° C. The cells were incubated at 37° C. in a humidified atmosphere of 5% CO2 plus 95% air.
After a week, the medium was replaced with medium supplemented with 0.5% heat-inactivated diaylzed calf serum, and the incubation was continued for 72 h in the presence of minoxidil or one of its structural analogs. The compounds were dissolved in 95% ethanol, except minoxidil sulfate which was dissolved in acetone; the final solvent concentration was 1% (v/v). During the last 3 h of incubation, cells received 100 μM Na L-ascorbate to ensure complete hydroxylation of the polypeptide precursors of precollagen (Murad et al, J. Invest. Dermatol. 75:404 (1980)).
The medium was then removed and the cells were washed twice with a solution containing 0.14 M NaCl, 5 mM KCl, 0.3 mM Na2 PO4, and 0.4 mM KH2 PO4, adjusted to pH 7.4. The cells were detached from the plates with a solution containing 0.05% trypsin, 0.54 mM EDTA, 5.5mM glucose, 6.90mM NaHCO3, […], and 5 mM KCl. The trypsinization was terminated with 2 vol of 20% serum-supplemented medium, and the cell number in an aliquot of the suspension was determined using a Coulter counter.
The detached cells were collected by centrifugation at 500g for 6 min at 4° C. washed twice by suspending in phosphate-buffered NaCl/KCl as above, and then centrifuged. The cell pellet was suspended in a medium (1 ml/5×10^6 cells) containing 0.2 M NaCl, 0.1 M glycine, 50 μM dithiothreitol, 20 mM Tris-HCl, buffer (pH 7.5), 0.1% Triton X-100, and 0.01% soybean trypsin inhibitor. The suspension was sonicated for 30 s using a Branson sonifier cell disrupter. The lysate was centrifuged at 27,000g for 1 h at 4° C., and the resulting supernatant was used for prolyl and lysyl hydroxylase assays (Murad and Pinnell, J. Biol. Chem. 262:11, 973 (1987)). The enzyme activities are based on a unit of soluble cell protein.
The protein content of cell extracts was determined by a dye-binding technique using Bio-Rad reagent and protein standard (Bradford, Anal. Biochem. 72:248 (1976)).
Note: Cultures of human skin fibroblasts grown to confluence were
incubated for 72 h in medium supplemented with 1% ethanol containing 1 mM
of the indicated compounds. Cells were then harvested, and the enzyme
activity in extracts of these cells was measured by a tritiumrelease
incubated for 72 h in medium supplemented with 1% ethanol containing 1 nM

lysyl hydroxylase [3] = assay: Lysyl hydroxylase activity in extracts of treated human skin fibroblasts (Example 2, pyridine, triazine and N-alkyl analogs); settings: for IC50: 72 hr (FIG. 4, FIG. 5), read-out: concentration giving 50% inhibition (lysyl hydroxylase)
Procedure: (§2) Cells were treated for 72 hr with minoxidil or its triazine analog at the indicated concentrations. The enzyme activities in extracts of treated cells were measured by tritium release assays (Murad and Pinnell, J. Biol. Chem. 262:11,973 (1987)) and are expressed as a percentage of zero-concentration values. PH, prolyl hydroxylase; LH, lysyl hydroxylase.
Cells were treated for 72 hr with various concentrations of minoxidil or its N-alkyl analogs as indicated. The enzyme activity in extracts of treated cells was measured by tritium release assays (Murad and Pinnell, J. Biol. Chem. 262:11,973 (1987)) and is expressed as a percentage of zero-concentration value. The minoxidil curve is reproduced from FIG. 4.
Cultures of human skin fibroblast (1.5×10^6 cells) were seeded onto 100-mm plates and incubated at 37° in Dulbecco's modified Eagle's medium supplemented with 20% calf serum. After 24 hr, the medium was replaced with medium supplemented with 0.5% heat-inactivated dialyzed calf serum. The incubation was continued for an additional 72 hr in the presence of 0.1-2 μM minoxidil analogs dissolved in 0.12N HCl; the final concentration of HCl was 0.0012N or 0.0024N. Cells treated with HCl only served as control. During the last 3 hr of incubation, cells received […] ascorbic acid to ensure complete hydroxylation of the polypeptide precursors of procollagen (Murad et al, J. Invest. Dermatol. 75:404 (1980)). At the end of the incubation period, cells were harvested by trypsinization and disrupted by sonication in a buffered medium (Murad et al, J. Biol. Chem. 262:11,973 (1987)).
(§3) Lysyl hydroxylase activity in extracts of treated cells was measured with an underhydroxylated procollagen substrate (Murad et al, J. Biol. Chem. 262:11,973 (1987)), which was prepared by labeling cultures of human skin fibroblasts with L-[4,5-^3 H]lysine in the presence of an iron chelator α,α'-dipyridyl (Murad and Pinnell, Conn. Tiss. Res. 13:181 (1985)). The amount of tritium released was quantitated as ^3 HO after vacuum distillation . Prolyl hydroxylase activity was similarly measured with an underhydroxylated procollagen substrate containing L-[4-^3 H]proline (Murad and Pinnell, J. Biol. Chem. 262:11973 (1987); Murad and Pinnell, Conn. Tiss. Res. 13:181 (1985)). The enzyme activities are based on a unit of soluble cell protein. The protein content of cell extracts was determined by a dye-binding techniques using Bio-Rad reagents (Bradford, Anal. Biochem. 72:248 (1976)).
Cells were treated for 72 hr with 1 mM minoxidil or its
structural analogs as indicated. The enzyme activity in extracts
of treated cells was measured by a tritium-release assay and is
expressed as a percentage of HCl-treated control.

prolyl hydroxylase = assay: Prolyl hydroxylase activity in extracts of treated human skin fibroblasts (Example 2); settings: 72 hr; N,N-diethyl analog up to 2 mM
Procedure: as §2
Cultures of human skin fibroblast (1.5×10^6 cells) were seeded onto 100-mm plates and incubated at 37° in Dulbecco's modified Eagle's medium supplemented with 20% calf serum. After 24 hr, the medium was replaced with medium supplemented with 0.5% heat-inactivated dialyzed calf serum. […] Cells treated with HCl only served as control. […]
as §3, with “The enzyme activities are based on a unit of soluble cell protein. The protein content of cell extracts was determined by a dye-binding techniques using Bio-Rad reagents (Bradford, Anal. Biochem. 72:248 (1976)).” left out

[4] = 1 mM, % of solvent-treated controls (Table I)
[5] = 1 nM, % of ethanol-treated controls (Table II)

Structure (SMILES): Nc1[nH]c(=O)c2nc[nH]c2[n+]1[O-] [Guanine 3-N-oxide]
- Lysyl hydroxylase activity (%) (lysyl hydroxylase [1]; 1 mM, dissolved in NaOH, final concentration 0.001 N, 72 h, % of solvent-treated controls (Table I)): 132%
- increase of the level of lysyl hydroxylase activity (lysyl hydroxylase [2]): 30-40%

Structure (SMILES): [O-][n+]1ccc(-c2ccccc2)cc1 [4-Phenylpyridine-N-oxide]
- Lysyl hydroxylase activity (%) (lysyl hydroxylase [1]; 0.3 mM, dissolved in ethanol, final concentration 0.3%, 72 h, % of solvent-treated controls (Table I)): 99%

Structure (SMILES): CCN(CC)c1cc(N)[n+]([O-])c(N)n1 [Compound III (Table III)]
- IC50 (lysyl hydroxylase [3]): ~1000 µM
- effect on prolyl hydroxylase activity (in words) (prolyl hydroxylase): no significant effect on prolyl hydroxylase activity

Structure (SMILES): CC1(C)CCC=[N+]1[O-] [5,5-Dimethyl-1-pyrroline-N-oxide]
- Lysyl hydroxylase activity (%) (lysyl hydroxylase [2]; [4]): 103%

Structure (SMILES): Cc1c([N+](=O)[O-])c(N2CCCCC2)nc(N)[n+]1[O-] [Compound VI (Table II)]
- Lysyl hydroxylase activity (%) (lysyl hydroxylase [2]; [5]): 34%
- effect on lysyl hydroxylase activity (in words) (lysyl hydroxylase [2]): no significant effect on its inhibitory activity

Structure (SMILES): [O-][n+]1cccc(O)c1 [3-Hydroxypyridine-N-oxide]
- Lysyl hydroxylase activity (%) (lysyl hydroxylase [2]; [4]): 99%

Structure (SMILES): Nc1nc(N2CCCCC2)nc(N)[n+]1[O-] [Compound II (Table III)]
- IC50 (lysyl hydroxylase [3]): ~800 µM
- effect on lysyl hydroxylase activity (in words) (lysyl hydroxylase [3]; 72 hr, Example 2, listed as triazine analog): no significant effect up to 0.2 mM; also recorded: less potent than minoxidil
- effect on prolyl hydroxylase activity (in words) (prolyl hydroxylase): failure to decrease the activity of prolyl hydroxylase

Structure (SMILES): CC1(C)CC(O)CC(C)(C)N1[O] [4-Hydroxy-2,2,6,6-tetramethylpiperidine-N-oxyl]
- Lysyl hydroxylase activity (%) (lysyl hydroxylase [2]; [4]): 130%
- increase of the level of lysyl hydroxylase activity (lysyl hydroxylase [2]): 30-40%

Structure (SMILES): Cc1cc(N2CCCC2)nc(N)[n+]1[O-] [Compound VII (Table II)]
- Lysyl hydroxylase activity (%) (lysyl hydroxylase [2]; [5]): 88%
- effect on lysyl hydroxylase activity (in words) (lysyl hydroxylase [2]): inactive

Structure (SMILES): Cc1cc(N2CCOCC2)nc(N)[n+]1[O-] [Compound VIII (Table II)]
- Lysyl hydroxylase activity (%) (lysyl hydroxylase [2]; [5]): 91%
- effect on lysyl hydroxylase activity (in words) (lysyl hydroxylase [2]): inactive

Structure (SMILES): O=C(O)c1cc[n+]([O-])cc1 [Isonicotinic acid N-oxide]
- Lysyl hydroxylase activity (%) (lysyl hydroxylase [1]; 1 mM, dissolved in aqueous medium, 72 h, % of solvent-treated controls (Table I)): 90%

Structure (SMILES): CN1CCN(c2cc(N)[n+]([O-])c(N)n2)CC1 [Compound IX (Table II)]
- Lysyl hydroxylase activity (%) (lysyl hydroxylase [1]; 0.1 mM, dissolved in HCl, final concentration 0.0012 N, 72 h (Table II footnote a)): 109%
- effect on lysyl hydroxylase activity (in words) (lysyl hydroxylase [2]): inactive
